Measurements taken from publication PMC10776578, “Epstein-Barr virus-driven B cell lymphoma mediated by a direct LMP1-TRAF6 complex” (Nature Communications, 2024).
Residue numbers refer to the chain shown, from its start. “Also recorded” adds a separate entry of the source. Read-outs that look alike come from different tables or passages of the source. No end group written: not given here.

T1: His-TRAF6_(310-522) (human, UniProt Q9Y4K3 310-522)
T1 construct: also called His-T6; recombinant TRAF6 wild-type; source: E. coli BL21 Codon Plus RIPL, purified (Ni-NTA)
T1 sequence: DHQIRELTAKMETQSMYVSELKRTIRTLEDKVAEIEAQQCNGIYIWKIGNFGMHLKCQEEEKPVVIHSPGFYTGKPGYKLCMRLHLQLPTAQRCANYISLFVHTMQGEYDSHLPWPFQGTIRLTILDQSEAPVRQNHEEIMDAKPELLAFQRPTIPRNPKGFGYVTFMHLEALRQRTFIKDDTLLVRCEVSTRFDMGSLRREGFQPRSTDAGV

B1: CD40: recombinant GST-CD40_216-277 (protein)
chain: KKVAKKPTNKAPHPKQEPQEINFPDDLPGSNTAAPVQETLHGCQPVTQEDGKESRISVQERQ
modifications: left off: GST, end not stated, kept
B2: CD40 E235Q (protein)
chain: B1 chain with E20Q
modifications: left off: GST, end not stated, kept
B3: GST-LMP1_(181-386) A204xAxA (domain or fragment)
chain: LIWMYYHGQRHSDEHHHDDSLPHAQAAADDSGHESDSNSNEGRHHLLVSGAGDGPPLCSQNLGAPGGGPDNGPQDPDNTDDNGPQDPDNTDDNGPHDPLPQDPDNTDDNGPQDPDNTDDNGPHDPLPHSPSDSAGNDGGPPQLTEEVENKGGDQGPPLMTDGGGGHSHDSGHGGGDPHLPTLLLGSSGSGGDDDDPHGPVQLSYYD
notes: also called A204xAxA mutant; CTAR1 mutant; source: E. coli DH5α or BL21 Codon Plus RIPL, purified (glutathione Sepharose 4B)
B4: LMP1 Y384F (protein)
chain: B3 chain with A24P, A26Q, A28T, Y204F
modifications: left off: GST, end not stated, kept
B5: LMP1 Q381E (protein)
chain: B3 chain with A24P, A26Q, A28T, Q201E
modifications: left off: GST, end not stated, kept
B6: LMP1 Y384D (protein)
chain: B3 chain with A24P, A26Q, A28T, Y204D
modifications: left off: GST, end not stated, kept
B7: GST-LMP1_(181-386) G378A (domain or fragment)
chain: B3 chain with A24P, A26Q, A28T, G198A
notes: source: E. coli DH5α or BL21 Codon Plus RIPL, purified (glutathione Sepharose 4B)

Experiments:
His-TRAF6_310-522 = experiment: Peptide array, TRAF6 binding; set-up: species or system human; key to T6 interaction (peptide array): +: Interaction with TRAF6 or TRAF2 isindicated according to the results shown in Figure 1c.; -: Interaction with TRAF6 or TRAF2 isindicated according to the results shown in Figure 1c; conditions: for T6 interaction (peptide array): immobilized peptide, 10 µg per mL His-TRAF6, 4 h RT, two independent experiments; for TRAF6 binding to immobilized peptide (in words): peptide array
Method: (§1) Arrays were synthesized on a Multipep Synthesizer (Intavis Bioanalytical Instruments) on derivatized cellulose (amino-Peg500 UC540, acid-hardened, loading 400 nmol per cm^2, Intavis). After peptides were spot-assembled and deprotected, membranes were washed extensively with dichloromethane, N-methylpyrrolidone, and ethanol and stored at −20 °C until use. Prior to use, filters were rinsed for 10 sec in ethanol and washed three times for ten min each at 50 rpm in PBST (PBS, 0.1% Tween-20) under gentle rocking. Filters were blocked by incubation in PBST supplemented with 5% (w/v) nonfat dry milk powder for 2 h at RT and three washing steps in PBST for 20 min. Subsequently, nonspecific antibody binding sites were blocked by incubation of the filters at 4 °C overnight with either TRAF6 (goat α-TRAF6 C-20 #sc-6223, Santa Cruz Biotech.) or TRAF2 primary antibody (rabbit α-TRAF2 C-20, #sc-876, Santa Cruz Biotech.), diluted at 1:1000 in PBS supplemented with 5% (w/v) nonfat dry milk powder. Following three washing steps with PBS, the filters were incubated with horseradish peroxidase-conjugated α-goat IgG (Dianova, #305-035-003) or α-rabbit IgG (Cell signalling Technology, #7074S) secondary antibody, diluted 1:5000 in PBS supplemented with 5% (w/v) nonfat dry milk powder. Filters were developed with ECL and no nonspecific antibody binding was detected. To detect TRAF6 or TRAF2 binding to the immobilized peptides, filters were washed with PBST and subsequently incubated with 10 µg per mL recombinant purified His-TRAF6 or His-TRAF2 protein in PBST supplemented with 5% (w/v) nonfat dry milk powder for 4 h at RT. After washing the filters in PBST, TRAF protein binding was analyzed by incubation of the filters with TRAF6 (C-20, #sc-6223, Santa Cruz Biotech., used at 1:1000) or TRAF2 (C-20, #sc-876, Santa Cruz Biotech., used at 1:1000) primary and the respective Horseradish peroxidase-coupled secondary antibodies (Dianova, #305-035-003, used at 1:500, or Cell Signalling Technology, #7074, used at 1:5000). ECL signals were captured on X-ray films (Agfa Healthcare).

His-TRAF2_311-501 = experiment: Peptide array, TRAF2 binding; set-up: key to T2 interaction (peptide array): +: Interaction with TRAF6 or TRAF2 isindicated according to the results shown in Figure 1c.; -: Interaction with TRAF6 or TRAF2 isindicated according to the results shown in Figure 1c; conditions: for T2 interaction (peptide array): immobilized peptide, 10 µg per mL His-TRAF2, 4 h RT, two independent experiments
Method: as §1

[1] = tested on: His-TRAF6_310-522 (TRAF6); experiment: AlphaScreen PPI assay, TRAF6 binding to GST-LMP1/CD40/RANK proteins; set-up: species or system human; conditions: for Bmax (best-fit value): AlphaScreen signal
Method: AlphaScreen experiments were performed in 96- or 384-well plates (Perkin Elmer, OptiPlate). In both assay formats, His-TRAF and GST-LMP1, GST-CD40, or GST-RANK proteins were incubated together in 40 µL of PBS (protein concentrations were calculated to the final reaction volume of 60 µL) supplemented with 0.5% BSA (Sigma, #A7030) and 0.1% Tween-20 (AppliChem, #A4974), for 1 h at room temperature (RT). If not indicated otherwise, standard protein concentrations were 300 nM for His-TRAF proteins and 100 nM for GST-LMP1 proteins. Ni-NTA-acceptor (Perkin Elmer, #6760619 C) and GST-acceptor (Perkin Elmer, # 6765300) beads were added each to a final concentration of 1–4 µg per mL in a final reaction volume of 60 µL and incubated for 1 h at RT in the dark. AlphaScreen PPI signals were measured in a CLARIOstar reader (BMG Labtech GmbH).
All statistical analyses were performed with Prism v10.1.0 software (GraphPad Software Inc.). Two-way ANOVA was performed on experiments with two factors of variance (Figs. 1e and 3a). Ordinary one-way ANOVA with multiple comparisons was performed on experiments with one factor of variance (Figs. 2a–e, 3c, 6b, 7b, 8c and Supplementary Fig. 2a). For KD determination, the data from each experiment were cleaned for the hook effect (signal depletion by oversaturation of the beads) and analyzed using the equation one site-specific binding with hill slope (Figs. 1f–i, and Supplementary Fig. 1f). The IC50 was determined using the log(inhibitor) vs. response – variable slope (four parameters) equation (Fig. 8b and d). A paired t-test was used for matched samples (Fig. 8b) and an unpaired t-test was used for unpaired samples (Figs. 7c and 8e).

His-TRAF6_(310-522) = molecular target: T1, His-TRAF6_(310-522); experiment: AlphaScreen or HTRF; AlphaScreen PPI assay: His-TRAF and GST-LMP1, GST-CD40 or GST-RANK in PBS with 0.5% BSA and 0.1% Tween-20, 1 h at RT; standard 300 nM His-TRAF and 100 nM GST protein if not indicated otherwise; for KD His-TRAF6 at different concentrations, fit one site-specific binding with hill slope; conditions: both partners purified
[2] = source data, One site -- Specific binding with Hill slope
[3] = source data, One site -- Specific binding with Hill slope, concentrations c H-T6 in nM, read-out: Kd (best-fit value)

Row | Molecule | T6 interaction (peptide array) (His-TRAF6_310-522) | T2 interaction (peptide array) (His-TRAF2_311-501) | h (Hill slope, best-fit value) [1, 2] | Bmax (best-fit value) [1, 2] | other results
1 | 2: CD40 230-259, A250xAxA (KQEPQEINFPDDLPGSNTAAAVAEALHGCQ; UniProt P25942 230-259, looked up, variant P250A Q252A T254A) [compound 2] | + | - |  |  | 
2 | DDSLPHPQQATDDSGHESDSNSNEGRHHLL [peptide 6, LMP1 198-227] | - | + |  |  | TRAF6 binding to immobilized peptide (in words) (His-TRAF6_310-522): did not bind; TRAF2 binding to immobilized peptide (in words) (His-TRAF2_311-501; peptide array): bound
3 | GSNTAAAVAEALHGCQPVTQEDGKESRISV [peptide 5, CD40 244-273, A250xAxA] | - | - |  |  | 
4 | GSNTAAPVQETLHGCQPVTQEDGKESRISV [peptide 4, CD40 244-273] | - | + |  |  | 
5 | KAEAQAINFPDDLPGSNTAAPVQETLHGCQ [peptide 3, CD40 230-259, A231xAxA] | - | + |  |  | 
6 | KQEPQEINFPDDLPGSNTAAPVQETLHGCQ [peptide 1, CD40 amino acids 230-259] | + | + |  |  | 
7 | PHLPTLLLGSSGSGGDDDDPHGAVALAYYD [peptide 12, LMP1 357-386, A379xAxA] | - | - |  |  | TRAF6 binding to immobilized peptide (in words) (His-TRAF6_310-522): abolished the direct TRAF6 binding
8 | PHLPTLLLGSSGSGGDDDDPHGPVQLSYYD [peptide 11, LMP1 357-386 (30mer)] | + | - |  |  | TRAF6 binding to immobilized peptide (in words) (His-TRAF6_310-522): efficiently captured
9 | RANK E346Q (GGGPYAQGEDARMLSLVSKTEIEEDSFRQMPTQDEYMDRPSQ; also: GST fusion left off, end not given here) |  |  | 1.998 | 1302008 | 
10 | RANK: recombinant GST-RANK314-355 (GGGPYAQGEDARMLSLVSKTEIEEDSFRQMPTEDEYMDRPSQ; also: GST fusion left off, end not given here) |  |  | 2.024 | 1370733 | Kd [1, 3]: 7.74 nM
11 | … GDDDDPHGPVQLSAAD [peptide 9, LMP1 371-386, A384A385] | - | - |  |  | TRAF6 binding to immobilized peptide (in words) (His-TRAF6_310-522): abolished the direct TRAF6 binding
12 | … GDDDDPHGPVQLSYYD [peptide 8, LMP1 371-386 (16mer)] | + | - |  |  | TRAF6 binding to immobilized peptide (in words) (His-TRAF6_310-522): efficiently captured
13 | B1 |  |  | 2.083 | 1455821 | 
14 | B2 |  |  | 1.924 | 1053663 | 
15 | B3 |  |  |  |  | binding result (His-TRAF6_(310-522)): binds
16 | B4 |  |  | 1.321 | 1186145 | TRAF6 binding/affinity (in words) ([1]; AlphaScreen PPI): improved the affinity of LMP1 for TRAF6; also recorded: higher affinity of Y384F to TRAF6 as compared to wild-type LMP1; Kd ([1]; AlphaScreen PPI, His-TRAF6_310-522 titrated with GST-receptor protein, PBS 0.5% BSA 0.1% Tween-20, 1 h RT, one site-specific binding with hill slope, mean ± SD, n = 3 (CD40), 4 (LMP1), 6 (RANK), read-out: KD of TRAF6 interaction): 21.7 ± 6.6 nM; Kd [1, 3]: 21.7 nM
17 | B5 |  |  | 1.772 | 1507585 | fold enhanced affinity for TRAF6 ([1]; compared with LMP1 wild-type): 5.0 -fold
18 | B6 |  |  |  |  | TRAF6 binding/affinity (in words) ([1]; AlphaScreen PPI): TRAF6 binding was not abolished; reduction of affinity to TRAF6 (factor) ([1]; compared with the respective wild-type receptor): 1.8; Kd ([1]; one site, specific binding with Hill slope, c H-T6 in nM, hook effect data excluded, 95% CI A204xAxA 52,94 to 93,02, Y384D 72,59 to 190,2, read-out: Kd): 131 nM; h (Hill slope) ([1]; one site, specific binding with Hill slope, hook effect data excluded, Std. Error A204xAxA 0.2126, Y384D 0.1712): 1.019; Bmax ([1]; one site, specific binding with Hill slope, hook effect data excluded, Std. Error A204xAxA 67298, Y384D 78225): 1231417
19 | B7 |  |  |  |  | binding result (His-TRAF6_(310-522)): binds
